Test results published in patent publication US10235756B2, “Vascular analysis methods and apparatus” (Bio-Tree Systems, Inc., priority 2009, dated 2019).

Assays:
[1] = tested on: human non-small cell lung tumor cell line (A549) subcutaneous tumors; experiment: Xenotopic tumor model, response to antiangiogenic therapy (vascular casts, micro CT); type: in vivo, mouse
Experimental: A tumor model can be generated by inoculating human non-small cell lung tumor cell line (A549 from ATCC, Inc.) subcutaneously in immunodeficient mice (SCID). SCID male mice (6-8 weeks old from Charles River Inc.) are inoculated subcutaneously in the lower back with a suspension of 1×10^6 human lung tumor cells (A549) in 0.2 ml of PBS. All mice are fed normal chow diet throughout the duration of the experiment. All mice weights are measured throughout the experiment. Tumor size is measured with calipers twice-a-week and tumor volume is calculated using the formula Length^2×Width×0.52. All mice are randomized into two treatment groups (approximately 10 mice per group) when the median tumor volume reaches approximately 500 mm^3. The treatment groups can be treated according to the following schedule using intraperitoneal (i.p.) administration of either a control composition or an anti-angiogenic compound. For example, different levels of an anti-angiogenic compound can be used and the results compared to a control group that is not treated with an anti-angiogenic compound (e.g., Avastin® available from Genentech, South San Francisco, Calif.). For example:
Group 1: Control group—treated with saline/PBS twice a week.
Group 2: High Avastin®—treated with Avastin® at 5 mg/kg/i.p. twice a week.
Group 3: Low Avastin®—treated with Avastin® at 0.5 mg/kg/i.p. twice a week.
Experiments are terminated 1.5 weeks after initial treatment.
At the end-point, all mice are anesthetized and systemically perfused with a casting agent.
In some embodiments, a tissue, for example, a tumor tissue, is perfused with a contrast and/or a casting agent prior to image acquisition. Methods of tissue perfusion are well known to those of skill in the art. In some embodiments, a tissue is perfused with Mercox, a casting agent available, for example, from Ladd Research, Williston, Vt. Mercox perfusion can be performed, as follows. An initial anticoagulation step for each animal is performed using an i.v. injection of heparin (10,000 U/ml, 0.3 cc/mouse). After 30 minutes, the animals are anesthetized. Each animal's heart is cannulated and the animal perfused with warm physiological saline at physiological pressure (with an open vein draining the organ or with an open vena cava). Perfusion is continued until the organ or animal is clear of blood. Mercox monomer is filtered through a 0.5 μm filter and a casting resin is prepared by mixing 8 ml Mercox, 2 ml methylmethacrylate, and 0.3 ml catalyst. The resin is infused through the same cannula until the onset of polymerization (the resin changes color to brown and emits heat, ˜10 min). The organ or animal is carefully immersed in a 60° C. water bath for 2 hours (or overnight in a sealed container). The tissue is removed by incubating in alternating rinses of 5% KOH and distilled water (for example in a 60° C. water bath sealed) followed by thorough rinsing in distilled water. The cast is cleaned in 5% formic acid for 15 minutes and rinsed thoroughly in distilled water and frozen in distilled water. The resulting block of ice is lyophilized (care should be taken not to melt the ice, the ice should […] as it lyophilizes). The resulting cast can be analyzed to identify one or more structural characteristics of interest.
Xenotopic mouse models obtained as described in Example 7 can be treated with either a control solution of saline/PBS or an anti-angiogenic preparation of Avastin® at 0.5 mg/kg/i.p. as described above. At the end-point, vascular casts can be prepared as described in Example 8 above and may be analyzed for two treated mice (both treated with Avastin® at 0.5 mg/kg/i.p.) and one control mouse. However, other experimental configurations may be used. The resulting vascular casts can be scanned using a micro CT-scanner and exemplary results of the structural analysis are shown in FIGS. 44-47. […] The blood vessel population distributions were consistent for both treated animals. […]

vasculature = experiment: Morphological features as a function of vessel diameter, control vs treated vasculature; type: in vivo; conditions: control vasculature vs vasculature treated with Avastin, FIGS. 30-32
From the text: As discussed above, computed morphological features may be used to compare the same features obtained from healthy tissue, or to compare the same features extracted from a bounded vasculature at different points in time to, for example, assess the effectiveness of treatment. FIGS. 30-33 illustrate examples of using various morphological properties described herein to, for example, quantify diseased vasculature and/or assess the effectiveness of a particular treatment. FIGS. 30-32 illustrate plots of a respective morphological feature as a function of vessel diameter for a control vasculature and for a vasculature treated with Avastin. […] Moreover, the impact may differ depending on the vessel size. That is, differences between the control and treated plots may be larger or smaller depending on the diameter of the vessel. Applicant has appreciated that the differences may be quantified to define a range wherein differences are different enough to help determine which vessel diameters are being targeted and impacted by the treatment.

[2] = tested on: mouse tumor model generated using H1975 cells; experiment: Hot spot analysis in mouse tumor model; type: in vivo
From the text: Applicant has appreciated that vascular information (e.g., based on vascular geometry) within a region (e.g., a wrapped 3D region) may be analyzed to identify one or more hot spots. For example, a threshold number of poker chips may be identified as a threshold for a hot spot within a unit volume of a tumor. The relative amount (e.g., percentage) of tumor vasculature that is represented by a hot spot then may be determined. This value may be used to evaluate the tumor (e.g., for diagnostic or prognostic purposes) or to evaluate a tumor response to therapy. In a non-limiting example, a hot spot may be defined as a cubic millimeter that contains more than 10,000 poker chips. FIGS. 73 and 74 illustrate experiments where the percentage represented by the hot spot regions (e.g., as a percentage of unit volumes within a tumor volume that are above the threshold for defining a hotspot) are evaluated in a mouse tumor model in response to Avastin treatment. The mouse tumor model was generated using H1975 cells. Mice were compared with and without Avastin treatment (Avastin provided for 10 days as described herein). The tumors analyzed were approximately 100 cubic mm in size. […]

glioblastoma = experiment: Vascular biomarker analysis of control and Avastin-treated glioblastoma (3D tumor vasculature, tumor wrap); type: in vivo
From the text: X-ray images of a control tumor and an Avastin-treated tumor are shown side by side in FIG. 43. […] FIGS. 46 and 47 show exemplary tumor wraps of the same control and Avastin-treated tumors. FIGS. 48-52 exemplify visualization of the distribution of microvascular density within two exemplary tumors.
In some embodiments, the assessment of vascular hot spots and/or necrotic regions within a diseased tissue, for example a malignant tumor, may be used in the evaluation of a treatment targeting said diseased tissue, for example the administration of a chemotherapeutic agent. FIG. 54 exemplify a comparison of vascular hot spots and necrotic regions in glioblastoma treated with Avastin to vascular hot spots and necrotic regions in non-treated control glioblastoma. […] Assessment of an exemplary vascular density related biomarker, total vessel density (number of vessels per given volume), in Avastin-treated glioblastoma and untreated controls is depicted in FIG. 56. Assessment of another exemplary vascular density related biomarker, mean vessel density (average number of vessels over a number of volume units, for example defined by the boundary of a tumor), in Avastin-treated glioblastoma and untreated controls as depicted in FIG. 57. Assessment of an exemplary vascular density related biomarker, total vessel volume density (number of voxels belonging to a vessel within a given volume), in Avastin-treated glioblastoma and untreated controls is depicted in FIG. 58. Assessment of another exemplary vascular density related biomarker, mean vessel volume density (average number of voxels belonging to a vessel within a number of volume units, for example defined by the boundary of a tumor), in Avastin-treated glioblastoma and untreated controls as depicted in FIG. 59. In some embodiments, a boundary of a tissue, for example a tumor, are determined based on vascular imaging and modeling data, and a subsequent assessment qualifying a voxel within those boundaries is carried out. In some embodiments, a biomarker is […] in a plurality of such qualified voxels. For example, the boundary of a solid tumor may be determined based on the abnormal vasculature associated with malignant tissue, for example by “tumor-wrap”, and vascular density related biomarkers may be assessed for tissue within that boundary.
It should be appreciated, that the biomarkers related to by some aspects of this invention may be useful in a wide variety of diagnostic and therapeutic modalities and applications, some non-limiting examples of which are described herein.

[3] = 0.5 mg/kg/i.p., treated vs untreated tumors
[4] = Avastin-treated vs non-treated control glioblastoma, FIG. 55

bevacizumab [Avastin] was tested, and the mean tumor volumes ([1]; 0.5 mg/kg/i.p., treated vs control group at the end of the experiment) was “did not differ significantly”, the blood vessel density ([1]; 0.5 mg/kg/i.p., treated vs control, FIGS. 54-67) was “differences in blood vessel density were detected” and the “percentage of middle diameter sized vessels” value [1, 3] was “higher percentage”. The “small diameter sized vessels, less than untreated tumors” value [1, 3] was 20%, the “vessel population ratio between large and middle size vessels” value ([1]; large approximately 147-161 μm, middle approximately 33-77 μm, after treatment) was “decreased” and the “vessel population ratio between small and middle size vessels” value ([1]; small approximately 21-35 μm, middle approximately 35-49 μm, after inhibitor treatment) was “decreased”. For the same substance, the “morphological features as a function of vessel diameter” value (vasculature) was “there are differences”, the “mean percentage of hot spot regions” value ([2]; Avastin provided for 10 days, over the time of the experiment, FIG. 73) was “decrease” and the “percentage of hot spot regions after treatment” value ([2]; change of about 40% to about 10%, Avastin for 10 days, hot spot = cubic millimeter with more than 10,000 poker chips) was “about 10%”. The hot spot density (glioblastoma; [4]) was “significant decrease”, the necrotic region volume (glioblastoma; [4]) was “significant increase” and the vessel volume density (glioblastoma; [4]) was “significant decrease”. For the same substance, the “frequency of microvascular density bins” value (glioblastoma; control vs treated tumor, FIG. 53) was “different microvascular density bin distribution”.
